Assay results as given in ChEMBL document CHEMBL3046249, “Synthesis and antifungal activity of cinnamic acid esters” (1996).

Tests used:
Format in all cases: functional
Athelia rolfsii [1] = assay: Antimicrobial activity against Athelia rolfsii assessed as growth inhibition at 100 ppm by agar dilution method; conditions: Agroathelia rolfsii; read-out: GI
Pythium [2] = assay: Antimicrobial activity against Pythium sp. assessed as growth inhibition at 100 ppm by agar dilution method; conditions: read-out: GI
Athelia rolfsii [3] = assay: Antimicrobial activity against Athelia rolfsii assessed as growth inhibition at 10 ppm by agar dilution method; conditions: Agroathelia rolfsii; read-out: GI
Pythium [4] = assay: Antimicrobial activity against Pythium sp. assessed as growth inhibition at 10 ppm by agar dilution method; conditions: read-out: GI

Cc1ccc(C(C)C)c(OC(=O)/C=C/c2ccccc2)c1
inhibition of growth at 100 ppm (Athelia rolfsii [1]): 45% | inhibition of growth at 100 ppm (Pythium [2]): 54%

CCCOC(=O)/C=C/c1ccc(O)c(OC)c1
inhibition of growth at 100 ppm (Athelia rolfsii [1]): 26% | inhibition of growth at 100 ppm (Pythium [2]): 9%

COc1cc(/C=C/C(=O)OC(C)C)ccc1O
inhibition of growth at 100 ppm (Athelia rolfsii [1]): 38% | inhibition of growth at 100 ppm (Pythium [2]): 18%

CCCCOC(=O)/C=C/c1ccc(O)c(OC)c1
inhibition of growth at 100 ppm (Athelia rolfsii [1]): 0% | inhibition of growth at 100 ppm (Pythium [2]): 0%

CCCOC(=O)/C=C/c1ccc(O)cc1
inhibition of growth at 100 ppm (Athelia rolfsii [1]): 70% | inhibition of growth at 10 ppm (Athelia rolfsii [3]): 9% | inhibition of growth at 10 ppm (Pythium [4]): 31% | inhibition of growth at 100 ppm (Pythium [2]): 91%

CCCCOC(=O)/C=C/c1ccc(O)cc1
inhibition of growth at 100 ppm (Athelia rolfsii [1]): 81% | inhibition of growth at 10 ppm (Athelia rolfsii [3]): 29% | inhibition of growth at 10 ppm (Pythium [4]): 35% | inhibition of growth at 100 ppm (Pythium [2]): 71%

O=C(/C=C/c1ccc(O)cc1)Oc1ccccc1
inhibition of growth at 100 ppm (Athelia rolfsii [1]): 53% | inhibition of growth at 10 ppm (Pythium [4]): 16% | inhibition of growth at 100 ppm (Pythium [2]): 80%

CC(C)=CCCC(C)CCOC(=O)/C=C/c1ccc(O)cc1 (stereo not given)
inhibition of growth at 100 ppm (Athelia rolfsii [1]): 55% | inhibition of growth at 100 ppm (Pythium [2]): 63%

Cc1ccc(OC(=O)/C=C/c2ccc(O)cc2)c(C(C)C)c1
inhibition of growth at 100 ppm (Athelia rolfsii [1]): 38% | inhibition of growth at 100 ppm (Pythium [2]): 36%

Cc1ccc(C(C)C)c(OC(=O)/C=C/c2ccc(O)cc2)c1
inhibition of growth at 100 ppm (Athelia rolfsii [1]): 31% | inhibition of growth at 100 ppm (Pythium [2]): 33%

COc1cc(/C=C/C(=O)Oc2ccc(C)cc2C(C)C)ccc1O
inhibition of growth at 100 ppm (Athelia rolfsii [1]): 37% | inhibition of growth at 100 ppm (Pythium [2]): 49%

COc1cc(/C=C/C(=O)Oc2cc(C)ccc2C(C)C)ccc1O
inhibition of growth at 100 ppm (Athelia rolfsii [1]): 58% | inhibition of growth at 100 ppm (Pythium [2]): 9%

C=CCc1ccc(OC(=O)/C=C/c2ccc(O)c(OC)c2)c(OC)c1
inhibition of growth at 100 ppm (Athelia rolfsii [1]): 38% | inhibition of growth at 100 ppm (Pythium [2]): 31%

CC(C)=CCCC(C)CCOC(=O)/C=C/c1ccccc1 (stereo not given)
inhibition of growth at 100 ppm (Athelia rolfsii [1]): 0% | inhibition of growth at 100 ppm (Pythium [2]): 0%

C=CCc1ccc(OC(=O)/C=C/c2ccccc2)c(OC)c1
inhibition of growth at 100 ppm (Athelia rolfsii [1]): 22% | inhibition of growth at 100 ppm (Pythium [2]): 28%

COC(=O)/C=C/c1ccc(O)c(OC)c1
inhibition of growth at 100 ppm (Athelia rolfsii [1]): 37% | inhibition of growth at 100 ppm (Pythium [2]): 0%

O=C(O)/C=C/c1ccccc1 [CINNAMIC ACID]
inhibition of growth at 100 ppm (Athelia rolfsii [1]): 100% | inhibition of growth at 10 ppm (Athelia rolfsii [3]): 24% | inhibition of growth at 10 ppm (Pythium [4]): 12% | inhibition of growth at 100 ppm (Pythium [2]): 97%

O=C(O)/C=C/c1ccc(O)cc1 [COUMARIC ACID]
inhibition of growth at 100 ppm (Athelia rolfsii [1]): 46% | inhibition of growth at 100 ppm (Pythium [2]): 10%

COC(=O)/C=C/c1ccccc1 [E-METHYL CINNAMATE]
inhibition of growth at 100 ppm (Athelia rolfsii [1]): 53% | inhibition of growth at 100 ppm (Pythium [2]): 66%

CCOC(=O)/C=C/c1ccc(O)c(OC)c1 [ETHYL FERULATE]
inhibition of growth at 100 ppm (Athelia rolfsii [1]): 43% | inhibition of growth at 100 ppm (Pythium [2]): 50%

CCOC(=O)/C=C/c1ccc(O)cc1 [ETHYL P-COUMARATE]
inhibition of growth at 100 ppm (Athelia rolfsii [1]): 45% | inhibition of growth at 10 ppm (Athelia rolfsii [3]): 8% | inhibition of growth at 10 ppm (Pythium [4]): 29% | inhibition of growth at 100 ppm (Pythium [2]): 87%

COc1cc(/C=C/C(=O)O)ccc1O [FERULATE]
inhibition of growth at 100 ppm (Athelia rolfsii [1]): 54% | inhibition of growth at 100 ppm (Pythium [2]): 48%

CCCCCCCOC(=O)/C=C/c1ccccc1 [HEPTYL CINNAMATE]
inhibition of growth at 100 ppm (Athelia rolfsii [1]): 10% | inhibition of growth at 100 ppm (Pythium [2]): 42%

CC(C)OP(=O)(OC(C)C)SCc1ccccc1 [IPROBENFOS]
inhibition of growth at 100 ppm (Athelia rolfsii [1]): 100% | inhibition of growth at 10 ppm (Athelia rolfsii [3]): 69% | inhibition of growth at 10 ppm (Pythium [4]): 42% | inhibition of growth at 100 ppm (Pythium [2]): 89%

CC(C)OC(=O)/C=C/c1ccc(O)cc1 [ISOPROPYL 3-(4-HYDROXYPHENYL)ACRYLATE]
inhibition of growth at 100 ppm (Athelia rolfsii [1]): 84% | inhibition of growth at 10 ppm (Athelia rolfsii [3]): 10% | inhibition of growth at 10 ppm (Pythium [4]): 41% | inhibition of growth at 100 ppm (Pythium [2]): 98%

COC(=O)/C=C/c1ccc(O)cc1 [METHYL P-HYDROXYCINNAMATE]
inhibition of growth at 100 ppm (Athelia rolfsii [1]): 41% | inhibition of growth at 10 ppm (Pythium [4]): 0% | inhibition of growth at 100 ppm (Pythium [2]): 54%

CCCCCCCCOC(=O)/C=C/c1ccccc1 [OCTYL CINNAMATE]
inhibition of growth at 100 ppm (Athelia rolfsii [1]): 13% | inhibition of growth at 100 ppm (Pythium [2]): 56%

O=C(/C=C/c1ccccc1)OCCc1ccccc1 [PHENETHYL CINNAMATE]
inhibition of growth at 100 ppm (Athelia rolfsii [1]): 22% | inhibition of growth at 100 ppm (Pythium [2]): 28%
